Assay results taken from patent US9833497B2, “Human originated EGF domain proteins and use of the same” (CHENGDU SOURCEBIO LIMITED-LIABILITY COMPANY, priority 2013, dated 2017).

Tests used:
Type in all cases: cell-based
Enterobacter cloacae = experiment: MIC against Gram-negative bacteria: Enterobacter cloacae; conditions: for MIC against E. cloacae: 96-well plate, 37° C., 10 h
Method in brief: (§1)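 MIC, the lowest recombinant protein concentration giving no bacterial growth, found by two-fold serial dilution of human EGF-domain proteins in triplicate. Inoculum 5×10^5 CFU/mL in LB from cultures at McFarland 0.5; plates incubated at 37° C, 175 rpm shaking.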

Aeromonas hydrophila = experiment: MIC against Gram-negative bacteria: Aeromonas hydrophila; conditions: for MIC against A. hydrophila: 96-well plate, 37° C., 10 h
Method in brief: as §1

Moraxella catarrhalis = experiment: MIC against Gram-negative bacteria: Moraxella catarrhalis; conditions: for MIC against M. catarrhalis: 96-well plate, 37° C., 10 h
Method in brief: as §1

Citrobacter diversus = experiment: MIC against Gram-negative bacteria: Citrobacter diversus; conditions: for MIC against C. diversus: 96-well plate, 37° C., 10 h
Method in brief: as §1

Klebsiella pneumonia = experiment: MIC against Gram-negative bacteria: Klebsiella pneumonia; conditions: for MIC against K. pneumonia: 96-well plate, 37° C., 10 h
Method in brief: as §1

Pseudomonas aeruginosa = experiment: MIC against Gram-negative bacteria: Pseudomonas aeruginosa; conditions: for MIC against P. aeruginosa: 96-well plate, 37° C., 10 h
Method in brief: as §1

Proteus mirabilis = experiment: MIC against Gram-negative bacteria: Proteus mirabilis; conditions: for MIC against P. mirabilis: 96-well plate, 37° C., 10 h
Method in brief: as §1

E. coli BL21 = experiment: MIC against Gram-negative bacteria: E. coli BL21; conditions: for MIC against E. coli BL21: 96-well plate, 37° C., 10 h
Method in brief: as §1

Proteus vulgaris = experiment: MIC against Gram-negative bacteria: Proteus vulgaris; conditions: for MIC against P. vulgaris: 96-well plate, 37° C., 10 h
Method in brief: as §1

Serratia marcescens = experiment: MIC against Gram-negative bacteria: Serratia marcescens; conditions: for MIC against S. marcescens: 96-well plate, 37° C., 10 h
Method in brief: as §1

E. coli DH5α = experiment: Antibacterial activity: MIC and growth curve against E. coli DH5α in 96-well plate; conditions: minimal inhibitory concentration against E. coli DH5α; 96-well plate, 5×10^5 CFU/mL, 37° C., judged after 8 h
Method in brief: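 Log-phase DH5α (OD600 about 0.5, 37° C, 185 rpm in LB) was pelleted, resuspended in fresh LB and seeded at 5×10^5 CFU/mL with recombinant protein at 50, 25 and 12.5 μg/mL (two-fold series), in triplicate. Plates were shaken at 175 rpm, 37° C, and OD600 was read every 30 min. MIC was the lowest concentration with no growth.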

[1] = 10 h cultivation at 37° C., 5×10^5 CFU/mL, two-fold serial dilution
[2] = E. cloacae, 10 h cultivation at 37° C.
[3] = A. hydrophila, 10 h cultivation at 37° C.
[4] = M. catarrhalis, 10 h cultivation at 37° C.
[5] = C. diversus, 10 h cultivation at 37° C.
[6] = K. pneumonia, 10 h cultivation at 37° C.
[7] = P. aeruginosa, 10 h cultivation at 37° C.
[8] = P. mirabilis, 10 h cultivation at 37° C.
[9] = E. coli BL21, 10 h cultivation at 37° C.
[10] = P. vulgaris, 10 h cultivation at 37° C.
[11] = S. marcescens, 10 h cultivation at 37° C.
[12] = Enterobacter cloacae, 5×10^5 CFU/mL
[13] = Aeromonas hydrophila, 5×10^5 CFU/mL
[14] = Moraxella catarrhalis, 5×10^5 CFU/mL
[15] = Citrobacter diversus, 5×10^5 CFU/mL
[16] = Klebsiella pneumonia, 5×10^5 CFU/mL
[17] = Pseudomonas aeruginosa, 5×10^5 CFU/mL
[18] = Proteus mirabilis, 5×10^5 CFU/mL
[19] = Proteus vulgaris, 5×10^5 CFU/mL
[20] = Serratia marcescens, 5×10^5 CFU/mL

Q: How did the “MIC against E. cloacae” value (Enterobacter cloacae; 5×10^5 CFU/mL) turn out when “PRT503 (CACPLTIASNNFSPTCHLNDGDEVVCDWCAPGYSGAWCERCADGYYGNPTVPGESCVP; listed as Homo sapiens)” was run?
A: Its value is 12.5 µg/mL.

Q: What about the “MIC against A. hydrophila” value (Aeromonas hydrophila; 5×10^5 CFU/mL) of the same substance?
A: The value was 25 µg/mL.

Q: And the “MIC against M. catarrhalis” value (Moraxella catarrhalis; 5×10^5 CFU/mL)?
A: Its value is 12.5 µg/mL.

Q: And the “MIC against C. diversus” value (Citrobacter diversus; 5×10^5 CFU/mL)?
A: Its value is 50 µg/mL.

Q: What about the “MIC against K. pneumonia” value (Klebsiella pneumonia; 5×10^5 CFU/mL) of the same substance?
A: Its value is 25 µg/mL.

Q: What about the “MIC against P. aeruginosa” value (Pseudomonas aeruginosa; 5×10^5 CFU/mL) of the same substance?
A: Its value is 50 µg/mL.

Q: What about the “MIC against P. mirabilis” value (Proteus mirabilis; 5×10^5 CFU/mL) of the same substance?
A: Its value is 50 µg/mL.

Q: And the “MIC against E. coli BL21” value (E. coli BL21; 5×10^5 CFU/mL)?
A: Its value is 25 µg/mL.

Q: What about the “MIC against P. vulgaris” value (Proteus vulgaris; 5×10^5 CFU/mL) of the same substance?
A: Its value is 12.5 µg/mL.

Q: And the “MIC against S. marcescens” value (Serratia marcescens; 5×10^5 CFU/mL)?
A: The value was 50 µg/mL.

Q: And the MIC (E. coli DH5α)?
A: The MIC was 12.5 µg/mL.

Q: For “PRT1159 (TTDDQENECQHEAVCKDEINRPRCSCSLSYIGRLCV; listed as Homo sapiens)”, which “MIC E. cloacae” value (Enterobacter cloacae; [1]) is on record?
A: The value was 12.5 µg/mL.

Q: What about the “MIC A. hydrophila” value (Aeromonas hydrophila; [1]) of the same substance?
A: Its value is 25 µg/mL.

Q: What about the “MIC M. catarrhalis” value (Moraxella catarrhalis; [1]) of the same substance?
A: The value was 25 µg/mL.

Q: What about the “MIC C. diversus” value (Citrobacter diversus; [1]) of the same substance?
A: Its value is 50 µg/mL.

Q: What about the “MIC K. pneumonia” value (Klebsiella pneumonia; [1]) of the same substance?
A: Its value is 50 µg/mL.

Q: What about the “MIC P. aeruginosa” value (Pseudomonas aeruginosa; [1]) of the same substance?
A: The value was 12.5 µg/mL.

Q: And the “MIC P. mirabilis” value (Proteus mirabilis; [1])?
A: The value was 12.5 µg/mL.

Q: What about the “MIC E. coli BL21” value (E. coli BL21; [1]) of the same substance?
A: The value was 50 µg/mL.

Q: What about the “MIC P. vulgaris” value (Proteus vulgaris; [1]) of the same substance?
A: The value was 25 µg/mL.

Q: And the “MIC S. marcescens” value (Serratia marcescens; [1])?
A: The value was 12.5 µg/mL.

Q: What about the MIC (E. coli DH5α) of the same substance?
A: Its MIC is 12.5 µg/mL.

Q: What does the source list for “PRT939 (DMNECLSEPCKNGGTCSDYVNSYTCKCQAGFDGVHCE; listed as Homo sapiens)”?
A: MIC (Enterobacter cloacae; [2]): 50 µg/mL; MIC (Aeromonas hydrophila; [3]): 12.5 µg/mL; MIC (Moraxella catarrhalis; [4]): 12.5 µg/mL; MIC (Citrobacter diversus; [5]): 50 µg/mL; MIC (Klebsiella pneumonia; [6]): 12.5 µg/mL; MIC (Pseudomonas aeruginosa; [7]): 12.5 µg/mL; MIC (Proteus mirabilis; [8]): 50 µg/mL; MIC (E. coli BL21; [9]): 25 µg/mL; MIC (Proteus vulgaris; [10]): 12.5 µg/mL; MIC (Serratia marcescens; [11]): 50 µg/mL; MIC (E. coli DH5α): 50 µg/mL

Q: What does the source list for “PRT1263 (DVDECAQGLDDCHADALCQNTPTSYKCSCKPGYQGEGRQCE; listed as Homo sapiens)”?
A: MIC against E. cloacae (Enterobacter cloacae; [12]): 50 µg/mL; MIC against A. hydrophila (Aeromonas hydrophila; [13]): 12.5 µg/mL; MIC against M. catarrhalis (Moraxella catarrhalis; [14]): 12.5 µg/mL; MIC against C. diversus (Citrobacter diversus; [15]): 50 µg/mL; MIC against K. pneumonia (Klebsiella pneumonia; [16]): 25 µg/mL; MIC against P. aeruginosa (Pseudomonas aeruginosa; [17]): 12.5 µg/mL; MIC against P. mirabilis (Proteus mirabilis; [18]): 50 µg/mL; MIC against E. coli BL21 (E. coli BL21; E. coli BL21, 5×10^5 CFU/mL): 50 µg/mL; MIC against P. vulgaris (Proteus vulgaris; [19]): 12.5 µg/mL; MIC against S. marcescens (Serratia marcescens; [20]): 50 µg/mL; MIC (E. coli DH5α): 100 µg/mL

Q: For “PRT1219 (DHDSCVHGPCQNGGSCLRRLAVSSVLKSRESLPVIIVANEPLQPFLCKCLPGYAGSWCE; listed as Homo sapiens)”, which “MIC against E. cloacae” value (Enterobacter cloacae; [12]) is on record?
A: Its value is 50 µg/mL.

Q: What about the “MIC against A. hydrophila” value (Aeromonas hydrophila; [13]) of the same substance?
A: Its value is 12.5 µg/mL.

Q: What about the “MIC against M. catarrhalis” value (Moraxella catarrhalis; [14]) of the same substance?
A: The value was 25 µg/mL.

Q: What about the “MIC against C. diversus” value (Citrobacter diversus; [15]) of the same substance?
A: Its value is 25 µg/mL.

Q: And the “MIC against K. pneumonia” value (Klebsiella pneumonia; [16])?
A: Its value is 12.5 µg/mL.

Q: What about the “MIC against P. aeruginosa” value (Pseudomonas aeruginosa; [17]) of the same substance?
A: The value was 25 µg/mL.

Q: What about the “MIC against P. mirabilis” value (Proteus mirabilis; [18]) of the same substance?
A: The value was 50 µg/mL.

Q: What about the “MIC against E. coli BL21” value (E. coli BL21; E. coli BL21, 5×10^5 CFU/mL) of the same substance?
A: Its value is 50 µg/mL.

Q: What about the “MIC against P. vulgaris” value (Proteus vulgaris; [19]) of the same substance?
A: Its value is 25 µg/mL.

Q: And the “MIC against S. marcescens” value (Serratia marcescens; [20])?
A: Its value is 25 µg/mL.

Q: And the MIC (E. coli DH5α)?
A: The MIC was 12.5 µg/mL.

Q: What does the source list for “PRT232 (DIDECRQDPSTCGPNSICTNALGSYSCGCIAGFHPNPEGSQKDGNFSCQ; listed as Homo sapiens)”?
A: MIC (μg/mL) E. cloacae (Enterobacter cloacae; E. cloacae, 10 h cultivation at 37° C., 5×10^5 CFU/mL): 25 µg/mL; MIC (μg/mL) A. hydrophila (Aeromonas hydrophila; A. hydrophila, 10 h cultivation at 37° C., 5×10^5 CFU/mL): 12.5 µg/mL; MIC (μg/mL) M. catarrhalis (Moraxella catarrhalis; M. catarrhalis, 10 h cultivation at 37° C., 5×10^5 CFU/mL): 12.5 µg/mL; MIC (μg/mL) C. diversus (Citrobacter diversus; C. diversus, 10 h cultivation at 37° C., 5×10^5 CFU/mL): 25 µg/mL; MIC (μg/mL) K. pneumonia (Klebsiella pneumonia; K. pneumonia, 10 h cultivation at 37° C., 5×10^5 CFU/mL): 12.5 µg/mL; MIC (μg/mL) P. aeruginosa (Pseudomonas aeruginosa; P. aeruginosa, 10 h cultivation at 37° C., 5×10^5 CFU/mL): 25 µg/mL; MIC (μg/mL) P. mirabilis (Proteus mirabilis; P. mirabilis, 10 h cultivation at 37° C., 5×10^5 CFU/mL): 25 µg/mL; MIC (μg/mL) E. coli BL21 (E. coli BL21; E. coli BL21, 10 h cultivation at 37° C., 5×10^5 CFU/mL): 12.5 µg/mL; MIC (μg/mL) P. vulgaris (Proteus vulgaris; P. vulgaris, 10 h cultivation at 37° C., 5×10^5 CFU/mL): 12.5 µg/mL; MIC (μg/mL) S. marcescens (Serratia marcescens; S. marcescens, 10 h cultivation at 37° C., 5×10^5 CFU/mL): 25 µg/mL; MIC (E. coli DH5α): 25 µg/mL

Q: How did the MIC (Enterobacter cloacae; [2]) turn out when “PRT1004 (LRPSCADSPCRNRATCQDSPQGPRCLCPTGYTGGSCQ; listed as Homo sapiens)” was run?
A: Its MIC is 50 µg/mL.

Q: And the MIC (Aeromonas hydrophila; [3])?
A: Its MIC is 25 µg/mL.

Q: And the MIC (Moraxella catarrhalis; [4])?
A: Its MIC is 25 µg/mL.

Q: And the MIC (Citrobacter diversus; [5])?
A: Its MIC is 12.5 µg/mL.

Q: And the MIC (Klebsiella pneumonia; [6])?
A: Its MIC is 12.5 µg/mL.

Q: What about the MIC (Pseudomonas aeruginosa; [7]) of the same substance?
A: Its MIC is 50 µg/mL.

Q: And the MIC (Proteus mirabilis; [8])?
A: Its MIC is 50 µg/mL.

Q: And the MIC (E. coli BL21; [9])?
A: The MIC was 100 µg/mL.

Q: And the MIC (Proteus vulgaris; [10])?
A: Its MIC is 25 µg/mL.

Q: And the MIC (Serratia marcescens; [11])?
A: Its MIC is 12.5 µg/mL.

Q: What about the MIC (E. coli DH5α) of the same substance?
A: Its MIC is 50 µg/mL.
